Measured values: patent US11498903B2 (BRISTOL-MYERS SQUIBB COMPANY, priority 2017, dated 2022)
Where two headings read alike, the source gives them in different places.

Molecular target: T1, human APJ receptor (Homo sapiens, UniProt P35414)
T1 construct: expressed in transfected cells
T1 sequence (P35414 1-380): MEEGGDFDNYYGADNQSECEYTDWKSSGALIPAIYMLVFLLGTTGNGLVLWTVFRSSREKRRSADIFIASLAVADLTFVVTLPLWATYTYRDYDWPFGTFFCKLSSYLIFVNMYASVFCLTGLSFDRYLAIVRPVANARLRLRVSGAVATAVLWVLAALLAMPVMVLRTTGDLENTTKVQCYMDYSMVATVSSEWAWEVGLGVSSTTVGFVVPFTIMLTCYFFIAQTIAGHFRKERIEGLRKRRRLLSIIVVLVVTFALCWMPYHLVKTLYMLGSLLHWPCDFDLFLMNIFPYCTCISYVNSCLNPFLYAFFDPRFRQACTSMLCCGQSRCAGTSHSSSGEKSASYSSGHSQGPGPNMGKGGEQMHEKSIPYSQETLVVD
Assay: Intracellular cAMP accumulation assay (APJ hcAMP, HTRF)
Type: cell-based
Method: Intracellular cAMP Accumulation Assay
HEK293 cells stably expressing human APJ receptor were used to assess the activity of compounds. Cultured cells were detached and resuspended in the cAMP Homogeneous Time-Resolved Fluorescence (HTRF) assay buffer (Cisbio cat; #62AM4PEJ). The assay was performed in 384-well assay plates (Perkin-Elmer; cat #6008289) according to assay protocol provided by the manufacturer. Serial dilutions of a compound together with assay buffer containing […] IBMX and 2 μM forskolin were added to each well containing 5,000 cells and incubated for 30 minutes at room temperature. Subsequently, cAMP D2 reagent was added in the lysis buffer followed by the EuK antibody (Cisbio; cat #62AM4PEJ) and incubated for 60 min. The fluorescence emission ratio was measured using fluorometer. The intracellular cAMP concentrations (compound-stimulated inhibition of forskolin-mediated cAMP production) were calculated by extrapolation from a standard curve using known cAMP concentrations. The EC50 values were obtained by fitting the data to a sigmoidal concentration-response curve with variable slope. The maximal achievable inhibition of forskolin-induced cAMP levels (Ymax) for each compound was expressed as relative percentage of inhibition attained using pyroglutamated apelin-13 ((Pyrl)apelin-13) peptide, which was set to 100%.
The exemplified Examples disclosed below were tested in the APJ in vitro assays described above and were found having human APJ cyclic AMP (hcAMP) activity. Table 1 lists hcAMP EC50 values measured for the following examples. Ranges are as followε: A=0.0-10 nM; B=10.01-100 nM; C=101-500 nM.

[1] = Table 1, HEK293 cells stably expressing human APJ receptor, inhibition of forskolin-mediated cAMP production, read-out: APJ hcAMP EC50
[2] = human APJ, cAMP, potency range class, read-out: APJ cAMP Human EC50
[3] = Table 3, HEK293 cells stably expressing human APJ receptor, read-out: APJ cAMP Human EC50

SMILES	EC50 [1] [nM]	EC50 [2] [nM]	EC50 [3] [nM]
CCC(NC(=O)c1ccc(-c2cc(Cl)ccc2-c2nc3ccccc3[nH]2)c(C(=O)O)c1)c1ccccn1 (racemic) [Example 213, 2′-(1H-1,3-benzodiazol-2-yl)-5′-chloro-4-{[1-(pyridin-2-yl)propyl]carbamoyl}-[1,1′-biphenyl]-2-carboxylic acid]	10 to 100	10 to 100	–
CCC(NC(=O)c1ccc(-c2cc(Cl)ccc2-c2nc3ccccc3[nH]2)c(C(=O)O)c1)c1ccncc1 (racemic) [Example 214, 2′-(1H-1,3-benzodiazol-2-yl)-5′-chloro-4-{[1-(pyridin-4-yl)propyl]carbamoyl}-[1,1′-biphenyl]-2-carboxylic acid]	10 to 100	10 to 100	–
CCC[C@@H](NC(=O)c1ccc(-c2c(C)cccc2-c2nc3cc(C(F)(F)F)ccc3[nH]2)c(C(=O)O)c1)c1ccccc1 (single isomer, unassigned) [Example 146]	< 10	–	< 10
CCC[C@@H](NC(=O)c1ccc(-c2c(C)cccc2-c2nc3cc(C(F)(F)F)ccc3[nH]2)c(C(=O)O)c1)c1ccccc1 (single isomer, unassigned) [Example 147]	–	–	101 to 500
CCCC(NC(=O)c1ccc(-c2c(Cl)cccc2-c2nc3cc(Cl)c(F)cc3[nH]2)c(C(=O)O)c1)C1CCCCC1 (single isomer, unassigned) [Example 161]	< 10	< 10	–
CCCC(NC(=O)c1ccc(-c2c(Cl)cccc2-c2nc3ccccc3[nH]2)c(C(=O)O)c1)c1c(C)cc(C)cc1C (single isomer, unassigned) [Example 163]	< 10	< 10	–
CCCC(NC(=O)c1ccc(-c2c(Cl)cccc2-c2nc3ccccc3[nH]2)c(C(=O)O)c1)c1ccc(Cl)cc1OC (single isomer, unassigned) [Example 164]	< 10	< 10	–
CCCC(NC(=O)c1ccc(-c2c(Cl)cccc2-c2nc3ccccc3[nH]2)c(C(=O)O)c1)c1ccc(F)cc1OC (single isomer, unassigned) [Example 165]	< 10	< 10	–
CCCC(NC(=O)c1ccc(-c2c(Cl)cccc2-c2nc3ccccc3[nH]2)c(C(=O)O)c1)c1ccc(Cl)cc1OC (single isomer, unassigned) [Example 166]	< 10	–	–
CCCC(NC(=O)c1ccc(-c2c(Cl)cccc2-c2nc3ccccc3[nH]2)c(C(=O)O)c1)c1ccncc1 (single isomer, unassigned) [Example 168]	< 10	< 10	–
CCCC(NC(=O)c1ccc(-c2c(Cl)cccc2-c2nc3ccccc3[nH]2)c(C(=O)O)c1)c1ccccc1Cl (single isomer, unassigned) [Example 169]	< 10	< 10	–
CCCC(NC(=O)c1ccc(-c2c(Cl)cccc2-c2nc3ccccc3[nH]2)c(C(=O)O)c1)c1cccc(F)c1 (single isomer, unassigned) [Example 171]	< 10	< 10	–
CCCC(NC(=O)c1ccc(-c2c(Cl)cccc2-c2nc3ccccc3[nH]2)c(C(=O)O)c1)C1CCCCCC1 (single isomer, unassigned) [Example 173]	< 10	< 10	–
CCCC(NC(=O)c1ccc(-c2c(Cl)cccc2-c2nc3ccccc3[nH]2)c(C(=O)O)c1)c1ccccn1 (single isomer, unassigned) [Example 175]	< 10	< 10	–
CCC[C@H](NC(=O)c1ccc(-c2c(Cl)cccc2-c2nc3ccccc3[nH]2)c(C(=O)O)c1)c1ccccc1OC(F)(F)F (single isomer, unassigned) [Example 176]	< 10	< 10	–
CCC[C@H](NC(=O)c1ccc(-c2c(Cl)cccc2-c2nc3ccccc3[nH]2)c(C(=O)O)c1)C1CCCCC1 (single isomer, unassigned) [Example 177]	< 10	< 10	–
CCCC(NC(=O)c1ccc(-c2c(Cl)cccc2-c2nc3ccccc3[nH]2)c(C(=O)O)c1)c1c(F)cccc1OC (single isomer, unassigned) [Example 178]	< 10	< 10	–
CCCC(NC(=O)c1ccc(-c2c(Cl)cccc2-c2nc3ccccc3[nH]2)c(C(=O)O)c1)c1ccc(Cl)cc1F (single isomer, unassigned) [Example 182]	< 10	< 10	–

SMILES	EC50 [1] [nM]	EC50 [2] [nM]	EC50 [3] [nM]
CCCC(NC(=O)c1ccc(-c2c(Cl)cccc2-c2nc3ccccc3[nH]2)c(C(=O)O)c1)C1CCCC1 (single isomer, unassigned) [Example 183]	< 10	< 10	–
CCCC(NC(=O)c1ccc(-c2c(Cl)cccc2-c2nc3ccccc3[nH]2)c(C(=O)O)c1)c1ccc(Cl)cc1F (single isomer, unassigned) [Example 184]	< 10	–	–
CCC[C@H](NC(=O)c1ccc(-c2c(Cl)cccc2-c2nc3ccccc3[nH]2)c(C(=O)O)c1)c1cccc(Cl)c1 (single isomer, unassigned) [Example 185]	< 10	< 10	–
CCCC(NC(=O)c1ccc(-c2c(Cl)cccc2-c2nc3ccccc3[nH]2)c(C(=O)O)c1)c1cncs1 (single isomer, unassigned) [Example 186]	< 10	< 10	–
CCCC(NC(=O)c1ccc(-c2c(Cl)cccc2-c2nc3ccccc3[nH]2)c(C(=O)O)c1)c1ccccc1C(F)(F)F (single isomer, unassigned) [Example 189]	10 to 100	10 to 100	–
CCCC(NC(=O)c1ccc(-c2c(Cl)cccc2-c2nc3ccccc3[nH]2)c(C(=O)O)c1)c1ccccc1OC(F)(F)F (single isomer, unassigned) [Example 191]	10 to 100	10 to 100	–
CCCC(NC(=O)c1ccc(-c2c(Cl)cccc2-c2nc3ccccc3[nH]2)c(C(=O)O)c1)c1ccncc1 (single isomer, unassigned) [Example 192]	10 to 100	10 to 100	–
CCCC(NC(=O)c1ccc(-c2c(Cl)cccc2-c2nc3cc(OC)c(F)cc3[nH]2)c(C(=O)O)c1)C1CCCC1 (single isomer, unassigned) [Example 195]	< 10	< 10	–
CCC[C@H](NC(=O)c1ccc(-c2c(Cl)cccc2-c2nc3cc(OC)c(F)cc3[nH]2)c(C(=O)O)c1)c1ccccc1C(F)(F)F (single isomer, unassigned) [Example 196]	< 10	< 10	–
CCCC(NC(=O)c1ccc(-c2c(Cl)cccc2-c2nc3cc(OC)c(F)cc3[nH]2)c(C(=O)O)c1)c1ccc(Cl)cc1OC (single isomer, unassigned) [Example 197]	< 10	< 10	–
CCCC(NC(=O)c1ccc(-c2c(Cl)cccc2-c2nc3cc(OC)c(F)cc3[nH]2)c(C(=O)O)c1)C1CCCCC1 (single isomer, unassigned) [Example 198]	< 10	< 10	–
CCC[C@H](NC(=O)c1ccc(-c2c(Cl)cccc2-c2nc3cc(Cl)c(F)cc3[nH]2)c(C(=O)O)c1)c1ccncc1 (single isomer, unassigned) [Example 199]	< 10	< 10	–
CCC[C@H](NC(=O)c1ccc(-c2c(Cl)cccc2-c2nc3cc(Cl)c(F)cc3[nH]2)c(C(=O)O)c1)c1ccc(Cl)cc1OC (single isomer, unassigned) [Example 200]	< 10	< 10	–
CCCC(NC(=O)c1ccc(-c2c(Cl)cccc2-c2nc3cc(Cl)c(F)cc3[nH]2)c(C(=O)O)c1)c1c(C)cc(C)cc1C (single isomer, unassigned) [Example 201]	< 10	< 10	–
COC(=O)c1cc(C(=O)N[C@H](c2ccc(Cl)cc2)C2CC2)ccc1-c1c(Cl)cccc1-c1nc2cc(OC)c(F)cc2[nH]1 (single isomer, unassigned) [Example 204]	101 to 500	101 to 500	–
COc1cc2nc(-c3cccc(Cl)c3-c3ccc(C(=O)N[C@H](c4ccc(Cl)cc4)C4CC4)cc3CO)[nH]c2cc1F (single isomer, unassigned) [Example 205]	10 to 100	10 to 100	–
CCCC(NC(=O)c1ccc(-c2cc(Cl)ccc2-c2nc3ccccc3[nH]2)c(C(=O)O)c1)c1ccc(F)cc1 (single isomer, unassigned) [Example 209, 2′-(1H-1,3-benzodiazol-2-yl)-5′-chloro-4-{[1-(4-fluorophenyl)butyl]carbamoyl}-[1,1′-biphenyl]-2-carboxylic acid]	< 10	< 10	–
